Results on five compounds are retold here after US20060025463A1, “Enoximone sulfoxide enantiomers and their use in the treatment of PDE-III mediated diseases” (priority 2004, published 2006).

For series [1], the system named is trabeculae from the right ventricular free wall of explanted human hearts. Kind of series: Tension study: peak contractile force of isolated human right ventricular trabeculae in a muscle bath. The note with it: 37° C., 1.0 Hz field stimulation, increasing concentrations. How it is done:
Explanted human hearts were obtained from transplant recipients (n=7) and from nonfailing donor hearts (n=1). After excision, hearts were placed immediately into ice cold Tyrode's solution and aerated with 95% O2 and 5% CO2. Trabeculae between 1-3 mm in width and 7-10 mm in length were excised from the right ventricular free wall. Subsequently trabeculae were mounted in a multi-chamber muscle bath in oxygenated Tyrode's solution at 37° C. The trabeculae were placed under 1 gram of resting tension and a field stimulation of 1.0 Hz. […] Peak contractile forces were recorded at 10 minute intervals for a total of 1½ hours. Following experimentation, trabeculae were frozen in liquid N2.

In series [2] the target is T1, PDE-III isolated from human platelets (Homo sapiens, UniProt Q14432).
T1 construct: PDE-III isolated from human platelets; from tissue; host or cells: human platelets
Kind of series: PDE-III inhibition assay, [3H]cAMP substrate, [3H]Adenosine quantified. The format is biochemical. The note with it: triplicate at three concentrations over log scale, semi-quantitative. How it is done:
Enoximone Sulfoxide enantiomer was tested for its ability to inhibit the action of PDE-III isolated from human platelets. The substrate was [^3H]cAMP+cAMP, which is converted by PDE-III to [^3H]Adenosine and then [^3H]Adenosine can be quantified.

For series [3] the following is noted: cited from earlier work.
For series [4] the following is noted: oral, cited from earlier work.
Another series has as its system PDE-III. The settings on record: cited from earlier work.
For series [5], the system named is men who suffer from ED of psychogenic or organic etiology. The note with it: clinical studies; cited from earlier work.

Read-outs that look alike come from different tables or passages of the source.

T1 sequence (Q14432 whole entry): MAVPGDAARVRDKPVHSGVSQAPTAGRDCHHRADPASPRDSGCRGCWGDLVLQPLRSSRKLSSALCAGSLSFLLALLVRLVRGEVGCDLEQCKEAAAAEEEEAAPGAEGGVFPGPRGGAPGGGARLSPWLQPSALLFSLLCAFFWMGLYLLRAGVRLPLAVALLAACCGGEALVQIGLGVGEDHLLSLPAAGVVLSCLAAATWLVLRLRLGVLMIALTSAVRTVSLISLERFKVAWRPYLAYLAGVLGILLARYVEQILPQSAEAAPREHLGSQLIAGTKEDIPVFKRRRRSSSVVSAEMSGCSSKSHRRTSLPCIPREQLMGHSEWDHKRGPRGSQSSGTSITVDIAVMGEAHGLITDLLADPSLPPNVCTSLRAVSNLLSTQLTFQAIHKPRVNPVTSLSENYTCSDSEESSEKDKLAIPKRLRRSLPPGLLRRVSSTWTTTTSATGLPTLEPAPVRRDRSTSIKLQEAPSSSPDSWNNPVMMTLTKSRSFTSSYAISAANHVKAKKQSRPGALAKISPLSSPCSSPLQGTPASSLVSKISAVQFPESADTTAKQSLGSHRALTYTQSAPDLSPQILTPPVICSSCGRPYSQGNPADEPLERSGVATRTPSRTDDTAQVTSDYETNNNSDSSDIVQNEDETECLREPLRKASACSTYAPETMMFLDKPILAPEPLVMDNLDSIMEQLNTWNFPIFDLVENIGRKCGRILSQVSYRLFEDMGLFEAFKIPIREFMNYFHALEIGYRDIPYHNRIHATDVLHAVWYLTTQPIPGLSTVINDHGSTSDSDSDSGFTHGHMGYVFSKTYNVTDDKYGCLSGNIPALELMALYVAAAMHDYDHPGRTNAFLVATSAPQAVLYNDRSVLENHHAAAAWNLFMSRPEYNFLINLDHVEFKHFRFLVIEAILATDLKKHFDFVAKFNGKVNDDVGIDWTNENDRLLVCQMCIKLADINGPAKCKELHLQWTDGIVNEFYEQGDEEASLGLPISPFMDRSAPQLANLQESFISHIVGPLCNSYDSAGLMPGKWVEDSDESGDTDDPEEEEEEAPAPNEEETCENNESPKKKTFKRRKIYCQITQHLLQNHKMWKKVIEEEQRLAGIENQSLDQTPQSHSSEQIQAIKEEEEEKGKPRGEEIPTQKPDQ

For the compound `Cc1[nH]c(=O)[nH]c1C(=O)c1ccc([S+](C)[O-])cc1.O` (single isomer, unassigned) [(R)-(+)-enantiomer, 1,3-Dihydro-4-methyl-5-[(4-methylsulfinyl)-benzoyl]-2H-imidazol-2-one hydrate], the “peak contractile force (net, T=0 value subtracted)” value (“peak contractile force” below) in series [1] was 175 mg of tension.

For `Cc1[nH]c(=O)[nH]c1C(=O)c1ccc([S@+](C)[O-])cc1` [(S)-(−)-enantiomer, 1,3-Dihydro-4-methyl-5-[(4-methylsulfinyl)-benzoyl]-2H-imidazol-2-one hydrate], in series [2], the IC50 (usually the point on the concentration scale where inhibition reaches its midpoint) was 147 µM. Moreover, in series [1], the “peak contractile force” value is given as 550 mg of tension.

Consider `CSc1ccc(C(=O)c2[nH]c(=O)[nH]c2C)cc1` [Enoximone, 1,3-Dihydro-4-methyl-5-[4-(methylthio)benzoyl]-2H-imidazol-2-one], for which the “peak contractile force” value in series [1] was 575 mg of tension. Also, in series [3] (patients with cardiac failure), the mean clearance result is “about 10 ml/min/kg” and the mean half-life is given as 6 h. Moreover, the Bioavailability entry in series [3] (single oral dose of 3 mg/kg) was “about 55%”. In addition, the “average steady-state plasma concentration” value in series [4] (50 mg every 8 hours) was 115 ± 40 ng/mL. For the same compound, the “average steady-state plasma concentration” value in series [4] (100 mg every 8 hours) was 190 ± 78 ng/mL.

`CC(C)NCC(O)c1ccc(O)c(O)c1` (stereo not drawn) [Isoproterenol]: the “peak contractile force” value in series [1] is given as > 1000 mg of tension.

`CCCc1nn(C)c2c(=O)[nH]c(-c3cc(S(=O)(=O)N4CCN(C)CC4)ccc3OCC)nc12` [sildenafil, 5-[2-ethoxy-5-(4-methylpiperazin-1-ylsulphonyl)phenyl]-1-methyl-3-n-propyl-6,7-dihydro-1H-pyrazolo[4,3-d]pyrimidin-7-one]: the “inhibition of PDE-III” value in the series with PDE-III is given as “negligible inhibition”. In addition, the “men with improved sexual function” value in series [5] was “about 70%”.
